# From patent publication US20210186970A1, “SELECTIVE CALCIUM CHANNEL ANTAGONISTS” (Northwestern University, priority 2011, published 2021)
# Several values for one entry are separate records, joined by “and”; a condition that tells them apart may be missing. Identical values can stand only once.
# How the values were obtained:
# [1] = molecular target: T1, Cav1.3 L-type Ca channels (Rattus norvegicus, UniProt P27732); experiment: FLIPR Fluo-8 calcium assay, Cav1.3 channel inhibition in HEK293 cells; type: cell-based; conditions: for selectivity for Cav1.3 over Cav1.2: ratio of IC50 values for the two cell lines
# T1 construct: expressed in transfected cells; host or cells: HEK293
# [2] = molecular target: Cav1.2 L-type Ca channels (Oryctolagus cuniculus, UniProt P15381); experiment: FLIPR Fluo-8 calcium assay, Cav1.2 channel inhibition in HEK293 cells
# Cav1.2 (α1C) LTCC = molecular target: T2, Cav1.2 (α1C) LTCC (Oryctolagus cuniculus, UniProt P15381); experiment: Whole-cell voltage-clamp recordings, Cav1.2 LTCC in HEK293 cells; type: cell-based, rabbit; conditions: 1 μM
# T2 construct: expressed in transfected cells; host or cells: HEK-293, stably transfected
# Method: (§1) Using the same cell lines from the initial screening, whole-cell voltage clamp recordings were made of either Cav1.3 LTCC or Cav1.2 LTCC containing HEK293 cells in the absence or presence of SKP00 4C08 at 1 μM. Bath application of SKP00 4C08 blocks ˜35% of the Cav1.3 channel current. SKP00 4C08 at the same concentration had no effect on Cav1.2 channel currents.
# (§2) Bioactivity Confirmation Using Whole-cell Patch Clamp. Because IC50 values depend strongly on assay conditions, the inhibitory activity of compound 8 (SKP00 4C08) was confirmed at Cav1.3 and Cav1.2 channels in HEK293 cells by whole-cell voltage-clamp electrophysiological recordings (FIG. 8).
# (§3) Whole-cell voltage-clamp recordings (FIG. 8A) were made in the absence (black, top) or presence (red, top) of compound 8 (SKP00 4C08) (5 μM). Superfusion of selected PYT blocks evoked barium currents in both LTCC cell lines in keeping with the data from our initial screen (FIG. 5B).
# (§4) General Procedure for Whole-cell Patch Clamp. […] Barium currents were measured from whole-cell voltage patch-clamp recordings using a Pulse 8.4 software data acquisition system (HEKA, Germany). […] Electrophysiological signals were analyzed using […] […]
# [3] = molecular target: T3, Cav1.2 (α1C) L-type calcium channel (Oryctolagus cuniculus, UniProt P15381); experiment: as above; type: cell-based, rabbit; conditions: rabbit, pH 7.4; 5 μM, whole-cell voltage clamp; read-out: inhibition of Cav1.2 channels
# T3 construct: expressed in transfected cells; host or cells: HEK-293, stably transfected
# Method: as §1, §2, §3, §4
# Cav1.3 (α1D) LTCC = molecular target: T4, Cav1.3 (α1D) LTCC (Rattus norvegicus, UniProt P27732); experiment: Whole-cell voltage-clamp recordings, Cav1.3 LTCC in HEK293 cells; type: cell-based
# T4 construct: expressed in transfected cells; host or cells: HEK-293, stably transfected
# Method: as §1, §2, §3
# General Procedure for Whole-cell Patch Clamp. HEK-293 cells were stably transfected with rat Cav1.3 (α1D) or rabbit Cav1.2 (α1C), Cavβ3, and Cavα2δ-1 and were cultured as previously reported (Chan et al. (2007) Nature 447:1081-1086.; herein incorporated by reference in its entirety). After 24-48 h of incubation at 37° C., cells underwent whole-cell patch-clamp electrophysiology. The external solution contained the following (in mM): 140 NaCl, 1 MgCl2, 10 BaCl2, 10 HEPES, 10 dextrose, 10 sucrose, and 20 CsCl at pH 7.4 and an osmolarity of ˜320 mOSml^−1. The test compound stock solutions in DMSO (10 mM or just DMSO) were diluted with the external solution to the desired concentration (10^−9 to 10^−6M), which was perfused (2 mL/min) into the bath while measuring the evoked barium currents. For experiments where dose-response curves were obtained, local perfusion of the desired concentration was employed. Barium currents were measured from whole-cell voltage patch-clamp recordings using a Pulse 8.4 software data acquisition system (HEKA, Germany). […] Electrophysiological signals were analyzed using […] […]
# [4] = IC50 (μM) Cav1.3, Table 4, 12 concentration points (0.1 nM~100 μM) in duplicate
# [5] = IC50 (μM) Cav1.3, second library, FLIPR, HEK293, value (±SD)
# [6] = Table 4, Cav1.3 relative to Cav1.2 from IC50 values
# [7] = second library, ratio of IC50 Cav1.2 to Cav1.3
# [8] = IC50 (μM) Cav1.2, Table 4, 12 concentration points (0.1 nM~100 μM) in duplicate
# [9] = IC50 (μM) Cav1.2, second library, FLIPR, HEK293, value (±SD)
# [10] = IC50 (μM) CaV1.3, first library, FLIPR, HEK293, value (±SD)
# [11] = first library, ratio of IC50 Cav1.2 to Cav1.3
# [12] = IC50 (μM) CaV1.2, first library, FLIPR, HEK293, value (±SD)
# T4 sequence (P27732 whole entry): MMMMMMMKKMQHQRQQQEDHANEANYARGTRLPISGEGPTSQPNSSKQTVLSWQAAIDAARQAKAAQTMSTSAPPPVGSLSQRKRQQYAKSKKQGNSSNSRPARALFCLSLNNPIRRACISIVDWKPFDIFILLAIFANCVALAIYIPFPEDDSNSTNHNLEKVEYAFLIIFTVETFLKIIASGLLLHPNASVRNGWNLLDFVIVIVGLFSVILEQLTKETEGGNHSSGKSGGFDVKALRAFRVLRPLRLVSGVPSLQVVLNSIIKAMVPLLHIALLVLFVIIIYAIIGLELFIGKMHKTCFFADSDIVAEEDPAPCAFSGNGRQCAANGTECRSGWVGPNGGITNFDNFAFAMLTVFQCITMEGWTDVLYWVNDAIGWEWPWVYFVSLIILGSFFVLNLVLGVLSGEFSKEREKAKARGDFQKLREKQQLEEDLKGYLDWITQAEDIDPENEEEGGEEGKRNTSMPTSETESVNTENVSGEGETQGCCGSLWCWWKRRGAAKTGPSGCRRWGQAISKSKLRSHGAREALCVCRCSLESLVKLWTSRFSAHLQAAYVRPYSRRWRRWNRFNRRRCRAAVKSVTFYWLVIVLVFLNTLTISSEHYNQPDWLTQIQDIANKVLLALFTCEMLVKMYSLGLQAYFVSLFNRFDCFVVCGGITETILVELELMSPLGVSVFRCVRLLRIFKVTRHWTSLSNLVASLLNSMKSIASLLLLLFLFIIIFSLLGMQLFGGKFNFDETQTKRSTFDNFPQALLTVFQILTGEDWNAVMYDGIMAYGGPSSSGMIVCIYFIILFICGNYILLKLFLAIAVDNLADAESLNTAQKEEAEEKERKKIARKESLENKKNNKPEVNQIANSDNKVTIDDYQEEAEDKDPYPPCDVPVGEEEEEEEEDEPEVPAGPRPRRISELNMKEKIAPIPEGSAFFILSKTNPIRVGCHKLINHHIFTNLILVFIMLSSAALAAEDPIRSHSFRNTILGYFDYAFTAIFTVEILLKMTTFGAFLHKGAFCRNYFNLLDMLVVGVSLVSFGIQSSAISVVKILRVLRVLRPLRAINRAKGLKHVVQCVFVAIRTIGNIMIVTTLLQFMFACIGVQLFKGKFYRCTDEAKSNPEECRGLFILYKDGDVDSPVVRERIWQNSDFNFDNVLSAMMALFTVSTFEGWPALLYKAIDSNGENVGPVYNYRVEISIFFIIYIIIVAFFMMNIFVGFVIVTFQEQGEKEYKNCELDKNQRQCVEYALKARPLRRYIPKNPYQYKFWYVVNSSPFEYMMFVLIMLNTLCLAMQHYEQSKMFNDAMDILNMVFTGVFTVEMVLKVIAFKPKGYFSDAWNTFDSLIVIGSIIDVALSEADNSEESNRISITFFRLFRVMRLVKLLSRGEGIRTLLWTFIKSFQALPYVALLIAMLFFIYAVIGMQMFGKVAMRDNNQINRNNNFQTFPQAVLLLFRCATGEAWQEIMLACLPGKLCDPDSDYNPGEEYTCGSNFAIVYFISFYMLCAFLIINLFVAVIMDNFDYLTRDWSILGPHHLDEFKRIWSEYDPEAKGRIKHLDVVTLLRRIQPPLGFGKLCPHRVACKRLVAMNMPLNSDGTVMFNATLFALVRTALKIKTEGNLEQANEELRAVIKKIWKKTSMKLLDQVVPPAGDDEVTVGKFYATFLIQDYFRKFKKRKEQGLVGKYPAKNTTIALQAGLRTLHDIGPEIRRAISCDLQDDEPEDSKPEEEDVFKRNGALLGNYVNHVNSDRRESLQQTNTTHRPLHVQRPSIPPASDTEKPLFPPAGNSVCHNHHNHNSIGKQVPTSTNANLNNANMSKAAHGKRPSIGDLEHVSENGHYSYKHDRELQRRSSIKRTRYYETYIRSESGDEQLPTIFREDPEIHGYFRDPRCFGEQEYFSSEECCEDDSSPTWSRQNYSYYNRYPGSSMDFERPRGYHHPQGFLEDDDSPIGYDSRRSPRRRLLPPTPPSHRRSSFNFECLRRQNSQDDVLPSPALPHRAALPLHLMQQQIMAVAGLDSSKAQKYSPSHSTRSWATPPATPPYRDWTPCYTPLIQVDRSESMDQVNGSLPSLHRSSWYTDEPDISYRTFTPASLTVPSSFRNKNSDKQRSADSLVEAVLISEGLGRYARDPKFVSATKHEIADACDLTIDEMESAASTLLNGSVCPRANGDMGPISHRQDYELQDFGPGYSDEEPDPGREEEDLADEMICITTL
# T4 sequence (P54284 whole entry partner): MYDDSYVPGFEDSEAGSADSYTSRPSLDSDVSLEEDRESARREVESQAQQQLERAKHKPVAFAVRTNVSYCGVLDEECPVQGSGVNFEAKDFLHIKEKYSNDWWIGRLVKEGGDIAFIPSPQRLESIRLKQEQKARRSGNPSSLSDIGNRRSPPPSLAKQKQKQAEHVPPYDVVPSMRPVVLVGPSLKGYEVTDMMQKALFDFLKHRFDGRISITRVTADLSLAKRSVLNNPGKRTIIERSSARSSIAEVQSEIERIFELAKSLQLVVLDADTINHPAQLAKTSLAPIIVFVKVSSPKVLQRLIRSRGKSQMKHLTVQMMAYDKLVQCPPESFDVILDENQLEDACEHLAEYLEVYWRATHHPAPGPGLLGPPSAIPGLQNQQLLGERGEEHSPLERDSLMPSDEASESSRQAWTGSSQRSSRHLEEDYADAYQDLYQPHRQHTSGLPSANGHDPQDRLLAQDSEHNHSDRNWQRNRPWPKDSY
# T4 sequence (P54289 25-956 partner limits assumed): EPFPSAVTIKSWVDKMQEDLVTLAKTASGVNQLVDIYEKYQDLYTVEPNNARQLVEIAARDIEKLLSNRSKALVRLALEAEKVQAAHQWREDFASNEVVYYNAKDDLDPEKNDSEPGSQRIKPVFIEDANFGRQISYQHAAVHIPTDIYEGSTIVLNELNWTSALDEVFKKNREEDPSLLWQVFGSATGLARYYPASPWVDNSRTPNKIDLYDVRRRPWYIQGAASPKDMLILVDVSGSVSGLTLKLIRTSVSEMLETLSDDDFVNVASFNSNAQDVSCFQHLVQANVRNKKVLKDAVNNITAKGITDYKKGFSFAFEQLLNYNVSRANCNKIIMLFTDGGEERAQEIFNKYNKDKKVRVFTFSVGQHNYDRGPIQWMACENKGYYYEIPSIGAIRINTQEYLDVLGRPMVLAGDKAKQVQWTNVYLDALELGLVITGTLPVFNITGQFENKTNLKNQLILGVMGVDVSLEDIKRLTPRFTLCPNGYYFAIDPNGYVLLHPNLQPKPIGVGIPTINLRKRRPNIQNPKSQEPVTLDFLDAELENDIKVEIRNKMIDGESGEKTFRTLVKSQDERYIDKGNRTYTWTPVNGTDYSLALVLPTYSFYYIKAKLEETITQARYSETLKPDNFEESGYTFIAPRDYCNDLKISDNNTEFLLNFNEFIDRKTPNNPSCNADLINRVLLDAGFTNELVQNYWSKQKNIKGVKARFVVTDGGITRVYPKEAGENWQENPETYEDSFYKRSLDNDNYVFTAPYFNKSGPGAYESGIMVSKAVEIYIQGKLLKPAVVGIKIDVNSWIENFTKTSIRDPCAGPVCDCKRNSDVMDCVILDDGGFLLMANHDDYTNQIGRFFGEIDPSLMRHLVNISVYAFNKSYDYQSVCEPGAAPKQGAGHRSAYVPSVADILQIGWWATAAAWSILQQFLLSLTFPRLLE
# T4 sequence (P54289 957-1103 partner limits assumed): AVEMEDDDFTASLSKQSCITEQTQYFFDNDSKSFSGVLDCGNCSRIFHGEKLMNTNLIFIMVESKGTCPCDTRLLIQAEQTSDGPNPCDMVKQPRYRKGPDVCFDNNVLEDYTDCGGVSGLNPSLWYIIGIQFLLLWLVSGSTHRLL
# T1 sequence (P27732 whole entry): as the sequence (P27732 whole entry) above
# T1 sequence (P54284 whole entry partner): as the sequence (P54284 whole entry partner) above
# T1 sequence (P54289 25-956 partner limits assumed): as the sequence (P54289 25-956 partner limits assumed) above
# T1 sequence (P54289 957-1103 partner limits assumed): as the sequence (P54289 957-1103 partner limits assumed) above
SMILES,"IC50 [1, 4] [µM]","IC50 [1, 5] [µM]","Selectivity [1, 6]","Selectivity [1, 7]","IC50 [2, 8] [µM]","IC50 [2, 9] [µM]",melting point [°C],"IC50 [1, 10] [µM]","Selectivity [1, 11]","IC50 [2, 12] [µM]",also measured
"Cc1cccc(CCN2C(=O)CC(=O)N(C3CCCCC3)C2=O)c1 [Compound 4, N-cyclohexyl-N′-(3-methylphenethyl)-pyrimidine-2,4,6-(1H,3H,5H)-trione]",2.2,2.2,35,35.4,77.1,77.1,182 to 183,–,–,–,–
"O=C1CC(=O)N(C2CCCCC2)C(=O)N1CCc1cccc(Br)c1 [Compound 5, N-(3-bromophenethyl)-N′-cyclohexyl-pyrimidine-2,4,6-(1H,3H,5H)-trione]",1.3,1.3,34,34.0,45.8,45.8,154 to 155,–,–,–,–
"O=C1CC(=O)N(C2CCCCC2)C(=O)N1CCc1cccc(C(F)(F)F)c1 [Compound 6, N-cyclohexyl-N′-(3-thrifluoromethylphenethyl)-pyrimidine-2,4,6-(1H,3H,5H)-trione]",1.3,1.3,20,20.3,25.8,25.8,105 to 107,–,–,–,–
"O=C1CC(=O)N(C2CCCC2)C(=O)N1CCCCc1ccccc1 [Compound 2, N-cyclopentyl-N′-(4-phenylbutyl)-pyrimidine-2,4,6-(1H,3H,5H)-trione]",1.3,–,34,–,43.8,–,85 to 87,1.3,33.7,43.8,–
"O=C1CC(=O)N(C2CCCC2)C(=O)N1CCc1cccc(Cl)c1 [Compound 8, N-(3-chlorophenethyl)-N′-cyclopentyl-pyrimidine-2,4,6-(1H,3H,5H)-trione]",1.7,–,1008,–,1730,–,131 to 132,–,–,–,"effect on Cav1.2 channel currents (Cav1.2 (α1C) LTCC): no effect; inhibition at 5 µM [3]: 3.8 ± 2.9%; IC50 ([1]; IC50 (μM) Cav1.3, third library, FLIPR, HEK293, value (±SD)): 1.7 µM; IC50 ([1]; IC50 with Cav1.3): 1.61 µM and 1.7 µM; inhibition ratio Cav1.3 vs Cav1.2, FLIPR assay ([1]; at 5.5 (unit not given)): 11 fold; selectivity for Cav1.3 over Cav1.2 [1]: 1000 fold; selectivity for Cav1.3 over Cav1.2 ([1]; listed as SKP00 4C08): greater than 1000 fold; Selectivity ([1]; third library, ratio of IC50 Cav1.2 to Cav1.3): 1008.2; block of Cav1.3 channel current (Cav1.3 (α1D) LTCC; 1 μM, bath application): ~35%; inhibition ratio Cav1.3 vs Cav1.2 (Cav1.3 (α1D) LTCC; 5 μM, whole-cell voltage clamp): roughly 12 fold; inhibition at 5 µM (Cav1.3 (α1D) LTCC; HEK293, 5 μM, whole-cell voltage clamp, read-out: inhibition of Cav1.3 channels): 43.8 ± 11%; IC50 ([2]; IC50 (μM) Cav1.2, third library, FLIPR, HEK293, value (±SD)): 1730 µM"
"O=C1CC(=O)N(C2CCCCC2)C(=O)N1CCc1cccc(Cl)c1 [Compound 3, N-(3-chlorophenethyl)-N′-cyclohexyl-pyrimidine-2,4,6-(1H,3H,5H)-trione]",1.4,–,38,–,53.1,–,153 to 154,1.4,38.0,53.1,–
